In paper PMC9134006 (RSC Advances, 2021):

Columns and labels:
hAChE (human AChE) = hAChE (human AChE) (Homo sapiens, UniProt P22303); assay: Inhibition of hAChE; format: biochemical; settings: for remaining activity at 10 µM: read-out: hAChE RA (residual activity) at 10 μM; for remaining activity at 100 µM: read-out: hAChE RA (residual activity) at 100 μM
hMAO-A (human MAO-A) = target: T1, hMAO-A (human MAO-A) (Homo sapiens, UniProt P21397); assay: Inhibition of hMAO-A; settings: for remaining activity at 10 µM: read-out: hMAO-A RA (residual activity) at 10 μM; for remaining activity at 100 µM: read-out: hMAO-A RA (residual activity) at 100 μM
T1 sequence (P21397 1-527): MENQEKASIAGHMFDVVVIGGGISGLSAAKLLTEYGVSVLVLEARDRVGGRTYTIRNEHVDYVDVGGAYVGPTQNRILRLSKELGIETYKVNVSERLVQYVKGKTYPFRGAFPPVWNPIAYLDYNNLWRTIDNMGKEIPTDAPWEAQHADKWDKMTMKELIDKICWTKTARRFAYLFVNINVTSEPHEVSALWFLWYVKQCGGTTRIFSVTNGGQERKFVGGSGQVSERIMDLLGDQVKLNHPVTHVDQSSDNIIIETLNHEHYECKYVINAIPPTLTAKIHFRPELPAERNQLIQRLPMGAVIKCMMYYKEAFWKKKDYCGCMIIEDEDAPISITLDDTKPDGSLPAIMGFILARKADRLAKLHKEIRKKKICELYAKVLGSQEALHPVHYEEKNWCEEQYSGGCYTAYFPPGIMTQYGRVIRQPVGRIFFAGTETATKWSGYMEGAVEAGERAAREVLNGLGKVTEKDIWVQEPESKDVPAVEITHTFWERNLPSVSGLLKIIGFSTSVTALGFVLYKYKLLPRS

hMAO-B (human MAO-B) = target: T2, hMAO-B (human MAO-B) (Homo sapiens, UniProt P27338); assay: Inhibition of hMAO-B; format: biochemical; settings: for remaining activity at 10 µM: read-out: hMAO-B RA (residual activity) at 10 μM; for remaining activity at 100 µM: read-out: hMAO-B RA (residual activity) at 100 μM; for inhibition of hMAO-B (in words): versus hAChE, hBChE, hMAO-A
T2 sequence (P27338 1-520): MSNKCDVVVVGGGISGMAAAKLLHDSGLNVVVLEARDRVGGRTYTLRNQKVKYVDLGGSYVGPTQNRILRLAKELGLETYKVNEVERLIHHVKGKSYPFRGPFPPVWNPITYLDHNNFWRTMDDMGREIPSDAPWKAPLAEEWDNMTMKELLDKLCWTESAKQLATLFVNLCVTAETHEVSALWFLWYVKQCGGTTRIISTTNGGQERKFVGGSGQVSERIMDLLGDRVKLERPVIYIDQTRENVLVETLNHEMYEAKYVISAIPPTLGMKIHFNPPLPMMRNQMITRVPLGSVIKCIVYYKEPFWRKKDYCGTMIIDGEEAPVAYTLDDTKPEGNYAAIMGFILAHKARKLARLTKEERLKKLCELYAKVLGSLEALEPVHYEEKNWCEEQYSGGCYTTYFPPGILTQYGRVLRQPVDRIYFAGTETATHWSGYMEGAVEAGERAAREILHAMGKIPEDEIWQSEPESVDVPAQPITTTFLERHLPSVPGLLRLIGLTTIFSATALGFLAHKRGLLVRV

hBChE (human BChE) = hBChE (human BChE) (Homo sapiens, UniProt P06276); assay: Inhibition of hBChE; format: biochemical; settings: for remaining activity at 10 µM: read-out: hBChE RA (residual activity) at 10 μM; for remaining activity at 100 µM: read-out: hBChE RA (residual activity) at 100 μM
Chain of hBChE (human BChE) (P06276 29-602): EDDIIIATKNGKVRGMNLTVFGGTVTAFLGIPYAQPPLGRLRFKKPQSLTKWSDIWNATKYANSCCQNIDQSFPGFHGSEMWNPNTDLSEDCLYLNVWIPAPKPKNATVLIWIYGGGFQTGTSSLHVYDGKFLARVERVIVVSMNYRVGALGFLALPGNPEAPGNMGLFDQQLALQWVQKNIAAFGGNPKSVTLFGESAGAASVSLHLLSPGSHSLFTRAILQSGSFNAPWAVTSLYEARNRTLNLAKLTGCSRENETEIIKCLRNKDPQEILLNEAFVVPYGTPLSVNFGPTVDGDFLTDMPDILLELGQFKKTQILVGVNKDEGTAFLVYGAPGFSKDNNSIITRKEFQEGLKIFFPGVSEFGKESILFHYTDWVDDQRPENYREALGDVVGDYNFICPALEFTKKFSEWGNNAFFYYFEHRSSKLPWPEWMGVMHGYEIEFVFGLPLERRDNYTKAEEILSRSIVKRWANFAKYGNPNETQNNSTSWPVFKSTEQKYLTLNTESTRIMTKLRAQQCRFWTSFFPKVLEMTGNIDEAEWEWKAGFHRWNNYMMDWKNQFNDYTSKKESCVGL

[1] = ref 29b,37; cited from earlier work

Chain of hAChE (human AChE) (P22303 32-614): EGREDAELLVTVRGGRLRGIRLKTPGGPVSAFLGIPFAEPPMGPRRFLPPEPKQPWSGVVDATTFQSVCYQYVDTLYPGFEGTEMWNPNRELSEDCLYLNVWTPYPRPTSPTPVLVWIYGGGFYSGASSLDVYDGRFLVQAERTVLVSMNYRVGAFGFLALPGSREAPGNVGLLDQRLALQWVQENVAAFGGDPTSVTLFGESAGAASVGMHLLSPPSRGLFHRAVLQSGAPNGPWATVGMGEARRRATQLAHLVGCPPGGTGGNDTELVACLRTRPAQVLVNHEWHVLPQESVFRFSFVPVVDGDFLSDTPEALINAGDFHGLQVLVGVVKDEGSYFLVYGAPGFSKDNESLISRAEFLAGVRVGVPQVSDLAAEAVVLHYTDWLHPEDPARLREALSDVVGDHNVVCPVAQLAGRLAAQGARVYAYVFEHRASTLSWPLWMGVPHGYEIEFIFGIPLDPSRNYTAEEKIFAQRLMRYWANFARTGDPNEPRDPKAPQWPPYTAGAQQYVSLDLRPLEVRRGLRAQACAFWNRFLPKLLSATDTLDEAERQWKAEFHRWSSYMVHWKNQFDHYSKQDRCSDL

| SMILES | remaining activity at 10 µM (hAChE (human AChE)) | remaining activity at 100 µM (hAChE (human AChE)) | remaining activity at 10 µM (hMAO-A (human MAO-A)) | remaining activity at 100 µM (hMAO-A (human MAO-A)) | IC50 (hMAO-B (human MAO-B)) | remaining activity at 10 µM (hMAO-B (human MAO-B)) | remaining activity at 100 µM (hMAO-B (human MAO-B)) | inhibition of hMAO-B (in words) (hMAO-B (human MAO-B)) | remaining activity at 10 µM (hBChE (human BChE)) | remaining activity at 100 µM (hBChE (human BChE)) | anti-inflammatory activity [1] |
| --- | --- | --- | --- | --- | --- | --- | --- | --- | --- | --- | --- |
| COc1ccc(-c2cnn3c(C(F)(F)F)cc(=O)[nH]c23)cc1 [Compound 5a, 3-(4-Methoxyphenyl)-7-(trifluoromethyl)pyrazolo[1,5-a]pyrimidin-5(4H)-one] | 93% | 86% | 95% | 99% | 35 µM | 73% | 26% | selectively inhibit hMAO-B in the micromolar range | 90% | 103% | – |
| COc1cccc(-c2cnn3c(C(F)(F)F)cc(=O)[nH]c23)c1 [Compound 5f, 3-(3-Methoxyphenyl)-7-(trifluoromethyl)pyrazolo[1,5-a]pyrimidin-5(4H)-one] | 91% | 88% | 92% | 97% | 101 µM | 80% | 40% | selectively inhibit hMAO-B in the micromolar range | 97% | 95% | – |
| O=c1cc(C(F)(F)F)n2ncc(-c3ccc4c(c3)OCCO4)c2[nH]1 [Compound 5h, 3-(2,3-Dihydrobenzo[b][1,4]dioxin-6-yl)-7-(trifluoromethyl)pyrazolo[1,5-a]pyrimidin-5(4H)-one] | 91% | 86% | 110% | 95% | 5.36 µM | 36% | 8% | selectively inhibit hMAO-B in the micromolar range | 94% | 95% | – |
| CC(=O)c1ccc(-c2cnn3c(C(F)(F)F)cc(=O)[nH]c23)cc1 [Compound 5i, 3-(4-Acetylphenyl)-7-(trifluoromethyl)pyrazolo[1,5-a]pyrimidin-5(4H)-one] | 90% | 91% | 100% | 98% | 26.2 µM | 75% | 21% | selectively inhibit hMAO-B in the micromolar range | 91% | 99% | – |
| FC(F)(F)c1cc(-c2ccc(Br)cc2)nc2c(-c3ccccc3)cnn12 [Compound 11h, 5-(4-Bromophenyl)-3-phenyl-7-(trifluoromethyl)pyrazolo[1,5-a]pyrimidine] | – | – | – | – | – | – | – | – | – | – | 83.4% |
| COc1ccc2c(c1)c(CC(=O)O)c(C)n2C(=O)c1ccc(Cl)cc1 [Indomethacin, reference compound] | – | – | – | – | – | – | – | – | – | – | 84.2% |
